Legend:
PTPN2 [1] = biological target: T1, PTPN2 (Homo sapiens (Human), UniProt P17706); assay: PhosphoSens assay (PTPN2 BCHEM); type: biochemical; conditions: substrate AQT0264 20 μM, PTPN2 150 pM
Procedure: A PhosphoSens® kinase assay was performed as described by the vendor (AssayQuant Technologies, Marlborough, MA). Briefly, 1000× solutions of compounds were prepared in DMSO via serial dilution of the 10 mM DMSO stocks using 3-fold intervals in a 384-well reagent plate. 50 nL of the compound dilution series was then added to the corresponding wells of a 384-well assay plate. […] Finally, […] of 5× PTPN2 enzyme stock was added to each well of the assay plate for a final enzyme concentration of 150 pM. Reaction progress curves were collected by sampling fluorescence intensity at the excitation wavelength 360 nm (λex360) and emission wavelength 480 nm (λem480) every 71 seconds for one hour using a Synergy H4 plate reader (BioTek Instruments/Agilent Technologies, Winooski, VT) at room temperature.
Target sequence in this assay (P17706 whole entry): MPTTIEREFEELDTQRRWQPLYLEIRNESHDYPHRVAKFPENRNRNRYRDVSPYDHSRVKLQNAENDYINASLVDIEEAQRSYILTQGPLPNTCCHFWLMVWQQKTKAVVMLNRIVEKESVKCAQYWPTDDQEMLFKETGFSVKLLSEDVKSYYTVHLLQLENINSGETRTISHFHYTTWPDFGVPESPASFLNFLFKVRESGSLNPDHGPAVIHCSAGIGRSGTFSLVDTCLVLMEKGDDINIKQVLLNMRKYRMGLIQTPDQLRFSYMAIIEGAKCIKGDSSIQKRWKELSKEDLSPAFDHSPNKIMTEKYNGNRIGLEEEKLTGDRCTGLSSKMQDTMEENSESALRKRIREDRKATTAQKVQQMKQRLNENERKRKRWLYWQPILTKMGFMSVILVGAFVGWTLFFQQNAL

PTPN2 [2] = biological target: T1, PTPN2; assay: Phosphatase activity assay using DiFMUP as substrate; type: biochemical; conditions: PTPN2 0.15 nM, 10 mM DTT
Procedure: The PTPN2 biochemical assay was performed as follows, a 5× stock solution of human PTPN2 (SRP5075, MilliporeSigma, Burlington, MA) and a 1.25× stock solution of DiFMUP (D6567, ThermoFisher Scientific, Waltham, MA), were prepared in 1× reaction buffer consisting of 50 mM HEPES, pH 7.4, 1 mM EDTA, 150 mM NaCl, 0.2 mg/mL BSA, 100 U/mL catalase and 10 mM DTT. […] of the DiFMUP substrate solution, for a final concentration of […] DiFMUP substrate, was added to a Corning 3574 384-well, white, non-binding surface microtiter plate containing […] of serially diluted test compounds prepared in DMSO. The reactions were started with the addition of […] of the enzyme solution, for a final PTPN2 concentration of 0.15 nM, and monitored every 105 seconds for 60 minutes at λEX 360/λEM 460 in a BioTek Synergy HTX plate reader (Agilent Technologies, Santa Clara, CA) at room temperature. The initial linear portions of the progress curves were fit according to a linear equation to yield the slopes and converted to % inhibition based on a value of 100% activity for the no inhibitor treated control. IC50 values of each compound were obtained by fitting the % inhibition-compound concentration curves using Dotmatics software (Dotmatics, Bishops Stortford, Hertfordshire, England),
Target sequence in this assay (P17706 other isoform, or with tags, fused parts or gaps isoform P17706-2): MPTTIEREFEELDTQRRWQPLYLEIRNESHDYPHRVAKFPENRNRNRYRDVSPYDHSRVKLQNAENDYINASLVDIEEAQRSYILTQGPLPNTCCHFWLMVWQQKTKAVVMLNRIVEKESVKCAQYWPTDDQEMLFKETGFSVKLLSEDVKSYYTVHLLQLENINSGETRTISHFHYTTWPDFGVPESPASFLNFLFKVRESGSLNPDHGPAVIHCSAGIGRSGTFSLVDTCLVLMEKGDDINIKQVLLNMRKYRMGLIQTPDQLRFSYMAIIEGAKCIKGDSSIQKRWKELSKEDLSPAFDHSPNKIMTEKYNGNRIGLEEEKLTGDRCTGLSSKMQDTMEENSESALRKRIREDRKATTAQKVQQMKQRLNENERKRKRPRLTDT

[3] = system: phosphorylated STAT1 in B16-F10 cells; assay: Phospho-STAT1 (Tyr701) HTRF assay in B16-F10 cells with IFN-gamma; type: cell-based; conditions: mouse IFN-gamma 100 ng/mL, 1 hour, read-out: pSTAT1 HTRF B16F10 EC50
Procedure: B16-F10 cells (ATCC, Manassas, VA, #CRL-6475) were cultured in DMEM growth medium (ThermoFisher Scientific, Waltham, MA, #11995-040) supplemented with 10% heat-inactivated FBS (ThermoFisher Scientific, #16140-071) and 1% pen/strep (ThermoFisher Scientific, #15140-122). The cells were seeded into a white opaque 384-well tissue culture treated microplate (PerkinElmer, Waltham, MA, #6007688) at a density of 10,000 cells/well in 20 uL total volume and incubated overnight at 37 C and 5% CO2. 30 nL of compounds dissolved in DMSO were then transferred from a source plate into target wells with the Echo650 acoustic liquid handler (Beckman Coulter, Indianapolis, IN). Negative control wells received 30 nL of DMSO only (0.15% final concentration). Plates were returned to the incubator for 1 hour and then cells were treated with either 5 uL of growth medium or 5 uL of growth medium containing 500 ng/mL of recombinant mouse IFN-gamma protein (R&D Systems, Minneapolis, MN, #485-MI/CF, 100 ng/mL final concentration) using the Assist automated pipetting platform (INTEGRA Biosciences, Hudson, NH). Plates were incubated at 37 C for 1 hour and assayed for phosphorylated STAT1 protein levels with the phospho-STAT1 (Tyr701) HTRF kit (Cisbio, Bedford, MA, #63ADK026PEH) according to the manufacturer's instructions.

B16-F10 cells = assay: Cell proliferation assay (CellTiter-Glo) in B16-F10 cells with IFN-gamma; type: cell-based; conditions: 120 h, mouse IFN-gamma 10 ng/mL, read-out: PTPN2 Prolif 5d B16F10 EC50

IC50 (PTPN2 [1]) [nM]	IC50 (PTPN2 [2]) [nM]	EC50 [3] [nM]	EC50 (B16-F10 cells) [nM]	Compound
6	1	260	580	O=C1CN(c2c(O)cc(CNc3cc(C4CC4)ccn3)cc2F)S(=O)(=O)N1 [EXAMPLE 1, 5-[4-[[(4-cyclopropyl-2-pyridyl)amino]methyl]-2-fluoro-6-hydroxy-phenyl]-1,1-dioxo-1,2,5-thiadiazolidin-3-one]
80	350	2430	2670	O=C1CN(c2c(O)cc(CNc3cc(C(F)(F)F)ccn3)cc2F)S(=O)(=O)N1 [EXAMPLE 2, 5-[2-fluoro-6-hydroxy-4-[[[4-(trifluoromethyl)-2-pyridyl]amino]methyl]phenyl]-1,1-dioxo-1,2,5-thiadiazolidin-3-one]
570	1000	> 15000	> 15000	O=C1CN(c2c(O)cc(CNc3ncccc3C(F)(F)F)cc2F)S(=O)(=O)N1 [EXAMPLE 3, 5-[2-fluoro-6-hydroxy-4-[[[3-(trifluoromethyl)-2-pyridyl]amino]methyl]phenyl]-1,1-dioxo-1,2,5-thiadiazolidin-3-one]
30	8	1030	670	CC(C)(C)c1ccc(NCc2cc(O)c(N3CC(=O)NS3(=O)=O)c(F)c2)nc1 [EXAMPLE 4, 5-[4-[[(5-tert-butyl-2-pyridyl)amino]methyl]-2-fluoro-6-hydroxy-phenyl]-1,1-dioxo-1,2,5-thiadiazolidin-3-one]
1	1	30	50	Cc1cc(C)nc(NCc2cc(O)c(N3CC(=O)NS3(=O)=O)c(F)c2)c1 [EXAMPLE 5, 5-[4-[[(4,6-dimethyl-2-pyridyl)amino]methyl]-2-fluoro-6-hydroxy-phenyl]-1,1-dioxo-1,2,5-thiadiazolidin-3-one]
3	10	140	170	O=C1CN(c2c(O)cc(CNc3cc(OC4CC4)ccn3)cc2F)S(=O)(=O)N1 [EXAMPLE 6, 5-[4-[[[4-(cyclopropoxy)-2-pyridyl]amino]methyl]-2-fluoro-6-hydroxy-phenyl]-1,1-dioxo-1,2,5-thiadiazolidin-3-one]
5	3	180	170	Cc1ccnc(NCc2cc(O)c(N3CC(=O)NS3(=O)=O)c(F)c2)c1 [EXAMPLE 7, 5-[2-fluoro-6-hydroxy-4-[[(4-methyl-2-pyridyl)amino]methyl]phenyl]-1,1-dioxo-1,2,5-thiadiazolidin-3-one]
–	20	670	670	COc1cc(NCc2cc(O)c(N3CC(=O)NS3(=O)=O)c(F)c2)nc(OC)c1 [EXAMPLE 18, 5-[4-[[(4,6-dimethoxy-2-pyridyl)amino]methyl]-2-fluoro-6-hydroxy-phenyl]-1,1-dioxo-1,2,5-thiadiazolidin-3-one]
–	20	9450	6700	COc1ccc(OC)c(NCc2cc(O)c(N3CC(=O)NS3(=O)=O)c(F)c2)n1 [EXAMPLE 21, 5-[4-[[(3,6-dimethoxy-2-pyridyl)amino]methyl]-2-fluoro-6-hydroxy-phenyl]-1,1-dioxo-1,2,5-thiadiazolidin-3-one]
–	810	> 15000	1710	COc1ccnc(NCc2cc(O)c(N3CC(=O)NS3(=O)=O)c(F)c2)c1OC [EXAMPLE 27, 5-[4-[[(3,4-dimethoxy-2-pyridyl)amino]methyl]-2-fluoro-6-hydroxy-phenyl]-1,1-dioxo-1,2,5-thiadiazolidin-3-one]
–	5	7380	9020	COc1ccc(C)c(NCc2cc(O)c(N3CC(=O)NS3(=O)=O)c(F)c2)n1 [EXAMPLE 29, 5-[2-fluoro-6-hydroxy-4-[[(6-methoxy-3-methyl-2-pyridyl)amino]methyl]phenyl]-1,1-dioxo-1,2,5-thiadiazolidin-3-one]
–	140	1940	4710	COc1cc(C)cc(NCc2cc(O)c(N3CC(=O)NS3(=O)=O)c(F)c2)n1 [EXAMPLE 39, 5-(2-fluoro-6-hydroxy-4-(((6-methoxy-4-methylpyridin-2-yl)amino)methyl)phenyl)-1,2,5-thiadiazolidin-3-one 1,1-dioxide]
–	5	1750	2190	N#Cc1cccc(NCc2cc(O)c(N3CC(=O)NS3(=O)=O)c(F)c2)n1 [EXAMPLE 40, 6-[[3-fluoro-5-hydroxy-4-(1,1,4-trioxo-1,2,5-thiadiazolidin-2-yl)phenyl]methylamino]pyridine-2-carbonitrile]
–	2	59	50	COc1cc(C)nc(NCc2cc(O)c(N3CC(=O)NS3(=O)=O)c(F)c2)c1 [EXAMPLE 41, 5-[2-fluoro-6-hydroxy-4-[[(4-methoxy-6-methyl-2-pyridyl)amino]methyl]phenyl]-1,1-dioxo-1,2,5-thiadiazolidin-3-one]
–	40	4700	160	O=C1CN(c2c(O)cc(CNc3cccc(C(F)F)n3)cc2F)S(=O)(=O)N1 [EXAMPLE 42, 5-[4-[[[6-(difluoromethyl)-2-pyridyl]amino]methyl]-2-fluoro-6-hydroxy-phenyl]-1,1-dioxo-1,2,5-thiadiazolidin-3-one]
–	110	> 15000	6570	O=C1CN(c2c(O)cc(CNc3cccc(OC(F)F)n3)cc2F)S(=O)(=O)N1 [EXAMPLE 43, 5-[4-[[[6-(difluoromethoxy)-2-pyridyl]amino]methyl]-2-fluoro-6-hydroxy-phenyl]-1,1-dioxo-1,2,5-thiadiazolidin-3-one]
–	10	4850	5750	CN(C)c1cccc(NCc2cc(O)c(N3CC(=O)NS3(=O)=O)c(F)c2)n1 [EXAMPLE 44, 5-(4-(((6-(dimethylamino)pyridin-2-yl)amino)methyl)-2-fluoro-6-hydroxyphenyl)-1,2,5-thiadiazolidin-3-one 1,1-dioxide]
–	40	3110	4620	Cc1cc(Br)nc(NCc2cc(O)c(N3CC(=O)NS3(=O)=O)c(F)c2)c1 [EXAMPLE 48, 5-(4-(((6-bromo-4-methylpyridin-2-yl)amino)methyl)-2-fluoro-6-hydroxyphenyl)-1,2,5-thiadiazolidin-3-one 1,1-dioxide]
–	20	4820	14700	Cc1cc(NCc2cc(O)c(N3CC(=O)NS3(=O)=O)c(F)c2)nc(N2CCOCC2)c1 [EXAMPLE 49, 5-(2-fluoro-6-hydroxy-4-(((4-methyl-6-morpholinopyridin-2-yl)amino)methyl)phenyl)-1,2,5-thiadiazolidin-3-one 1,1-dioxide]
–	0.2	200	600	O=C1CN(c2c(O)cc(CNc3cccc(=O)[nH]3)cc2F)S(=O)(=O)N1 [EXAMPLE 51, 5-(2-fluoro-6-hydroxy-4-(((6-oxo-1,6-dihydropyridin-2-yl)amino)methyl)phenyl)-1,2,5-thiadiazolidin-3-one 1,1-dioxide]
–	10	6290	3340	Cc1cc(Oc2ccccc2)cc(NCc2cc(O)c(N3CC(=O)NS3(=O)=O)c(F)c2)n1 [EXAMPLE 52, 5-(2-fluoro-6-hydroxy-4-(((6-methyl-4-phenoxypyridin-2-yl)amino)methyl)phenyl)-1,2,5-thiadiazolidin-3-one 1,1-dioxide]

From US20240180886A1, “INHIBITORS OF PROTEIN TYROSINE PHOSPHATASE, COMPOSITIONS, AND METHODS OF USE” (BRISTOL-MYERS SQUIBB COMPANY, priority 2022, published 2024)
